{"source": "paper PMC9885530", "about": "“Identification of Natural Products Inhibiting SARS-CoV-2 by Targeting Viral Proteases: A Combined in Silico and in Vitro Approach” (Journal of Natural Products, 2023)", "key": {"M^pro [1]": {"tested_on": "M^pro", "details": "read-out: M^pro IC50 previously reported, cited from earlier work"}, "SARS-CoV-2 PLpro [2]": {"biological_target": "T1, SARS-CoV-2 PLpro (Severe acute respiratory syndrome coronavirus 2, UniProt P0DTD1)", "assay": "PL^pro fluorogenic peptide cleavage assay (substrate Z-RLRGG-AMC)", "assay_type": "biochemical", "design": "papain-like protease (PL^pro; domain of nsp3); His; purchased BPS Biosciences BPS-100735-1"}, "SARS-CoV-2 [3]": {"tested_on": "SARS-CoV-2", "assay": "Antiviral assay in Caco-2 cells", "assay_type": "cell-based"}, "SARS-CoV-2 [4]": {"tested_on": "SARS-CoV-2", "assay": "Antiviral assay in Calu-3 cells (spike staining)", "assay_type": "cell-based"}, "SARS-CoV-2 PLpro [5]": {"biological_target": "T1, SARS-CoV-2 PLpro", "assay": "biochemical", "design": "papain-like protease (PL^pro; domain of nsp3); purchased Anaspec (Fremont, USA) AS-72263", "details": "for SARS-CoV-2 PLpro inhibition % enzyme inhibition (20 µM): commercial Anaspec assay kit; for inhibition at 20 µM: read-out: SARS-CoV-2 PLpro inhibition % enzyme inhibition (20 µM)"}, "[6]": {"assay": "Cytotoxicity in Caco-2 cells", "details": "human"}, "[7]": {"assay": "Cytotoxicity in Calu-3 cells", "details": "human"}, "SARS-CoV-2 M^pro": {"biological_target": "SARS-CoV-2 M^pro (Severe acute respiratory syndrome coronavirus 2, UniProt P0DTD1)", "assay": "biochemical", "assay_type": "biochemical", "details": "buffer with 5 mM DTT; for inhibition at 20 µM: 20 μM compound, for values marked a the relative standard deviation of 6% applies, read-out: SARS-CoV-2 M^pro enzyme inhibition (%) 20 μM; for inhibition at 100 µM: 100 μM compound, read-out: SARS-CoV-2 M^pro enzyme inhibition (%) 100 μM"}, "in vitro [8]": {"assay": "in vitro", "details": "human, Caco-2"}, "in vitro [9]": {"assay": "in vitro", "details": "human"}, "M^pro [10]": {"biological_target": "T2, M^pro (Severe acute respiratory syndrome coronavirus 2, UniProt P0DTD1)", "assay_type": "binding", "details": "2 μM protein, 50 μM ligand"}, "M^pro [11]": {"biological_target": "T2, M^pro", "assay": "Competitive 1H CPMG relaxation dispersion NMR with compound 4 as reporter ligand", "assay_type": "binding, SARS-CoV-2", "details": "competition with compound 4"}, "[12]": {"details": "Severe acute respiratory syndrome coronavirus 2, Calu-3 cells, MOI 0.01, 48 h postinfection, read-out: Anti-SARS-CoV-2 activity IC50"}}, "note": "“And” between values parts separate entries of the source, which are not always exact repeats. Equal values may be shown once. Read-outs that look alike come from different tables or passages of the source.", "data": [{"smiles": "CC(=O)O[C@H](CC=C(C)C)C1=CC(=O)c2c(O)ccc(O)c2C1=O", "note": "[Compound 30, acetylshikonin]", "values": [{"measurement": "IC50", "setting": "M^pro [1]; reported inhibition later described as assay artifact (ref 34)", "value": 3.8, "unit": "µM"}, {"measurement": "IC50", "setting": "SARS-CoV-2 PLpro [2]; Z-RLRGG-AMC substrate", "value": 24.3, "unit": "µM"}, {"measurement": "IC50", "setting": "SARS-CoV-2 [3]; Severe acute respiratory syndrome coronavirus 2, Caco-2, read-out: Anti SARS-CoV-2 activity Caco-2 IC50 (µM)", "value": "> 100", "unit": "µM"}, {"measurement": "IC50", "setting": "SARS-CoV-2 [4]; [12]", "value": "> 100", "unit": "µM"}, {"measurement": "SARS-CoV-2 PLpro inhibition % enzyme inhibition (20 µM)", "setting": "SARS-CoV-2 PLpro [5]", "value": "significant enzyme inhibition"}, {"measurement": "inhibition at 20 µM", "setting": "SARS-CoV-2 PLpro [5]", "value": "100 ± 9.5", "unit": "%"}, {"measurement": "CC50", "setting": "[6]", "value": 65.8, "unit": "µM"}, {"measurement": "CC50", "setting": "[7]", "value": "> 100", "unit": "µM"}]}, {"smiles": "O=c1cc(-c2ccccc2)oc2cc(O)c(O)c(O)c12", "note": "[Compound 4, baicalein, reference compound]", "values": [{"measurement": "IC50", "setting": "M^pro [1]", "value": 0.98, "unit": "µM"}, {"measurement": "inhibition at 20 µM", "setting": "SARS-CoV-2 M^pro", "value": 8.6, "unit": "%"}, {"measurement": "inhibition at 100 µM", "setting": "SARS-CoV-2 M^pro", "value": "90 ± 1.4", "unit": "%"}]}, {"smiles": "COc1ccc2c(=O)c(Oc3ccc(C(=O)NC(C)Cc4c[nH]c5ccccc45)cc3)coc2c1", "note": "(stereo not drawn) [Compound 42]", "values": [{"measurement": "inhibition at 20 µM", "setting": "SARS-CoV-2 PLpro [2]; read-out: SARS-CoV-2 PL^pro enzyme inhibition (%) 20 μM", "value": "4.89 ± 1.3", "unit": "%"}, {"measurement": "inhibition at 100 µM", "setting": "SARS-CoV-2 PLpro [2]; read-out: SARS-CoV-2 PL^pro enzyme inhibition (%) 100 μM", "value": "8.8 ± 7", "unit": "%"}, {"measurement": "IC50", "setting": "SARS-CoV-2 [3]; Severe acute respiratory syndrome coronavirus 2, Caco-2 cells, read-out: Anti SARS-CoV-2 activity Caco-2 IC50", "value": 7.1, "unit": "µM"}, {"measurement": "CC50", "setting": "in vitro [8]", "value": "> 100", "unit": "µM"}, {"measurement": "CC50", "setting": "in vitro [9]", "value": "> 100", "unit": "µM"}, {"measurement": "IC50", "setting": "SARS-CoV-2 [4]; Severe acute respiratory syndrome coronavirus 2, Calu-3, 48 h, read-out: Anti-SARS-CoV-2 activity IC50 (μM)", "value": "> 100", "unit": "µM"}, {"measurement": "SARS-CoV-2 PLpro inhibition % enzyme inhibition (20 µM)", "setting": "SARS-CoV-2 PLpro [5]", "value": "significant enzyme inhibition"}, {"measurement": "inhibition at 20 µM", "setting": "SARS-CoV-2 PLpro [5]", "value": "82.3 ± 25.3", "unit": "%"}]}, {"smiles": "CC(C)=CCCC1=C[C@H](c2c(O)cc3c(c2O)C(=O)C[C@@H](c2ccc(O)cc2O)O3)[C@@H](C(=O)c2ccc(O)cc2O)[C@H](c2ccc(O)cc2O)C1", "note": "[Compound 15, sanggenon G]", "values": [{"measurement": "CC50", "setting": "in vitro [9]", "value": 49.1, "unit": "µM"}, {"measurement": "selectivity index (SI)", "setting": "SARS-CoV-2 [4]; Calu-3 cells, cytotoxicity vs anti-SARS-CoV-2 activity", "value": "6.5 and > 5"}, {"measurement": "IC50", "setting": "SARS-CoV-2 [4]; [12]", "value": 7.6, "unit": "µM"}, {"measurement": "inhibition at 20 µM", "setting": "SARS-CoV-2 M^pro", "value": 92.6, "unit": "%"}, {"measurement": "inhibition at 100 µM", "setting": "SARS-CoV-2 M^pro", "value": "99.6 ± 0.2", "unit": "%"}, {"measurement": "IC50", "setting": "SARS-CoV-2 M^pro; read-out: SARS-CoV-2 M^pro IC50", "value": "4.82 µM and 4.8 µM"}, {"measurement": "STD signals", "setting": "M^pro [10]", "value": "no STD signals were detected"}, {"measurement": "displacement of reporter ligand 4 from M^pro (CPMG-RD)", "setting": "M^pro [11]", "value": "displacement from the binding site"}]}]}
